We go through 19 molecules from patent publication US20120323164A1, “PHOTODYNAMIC THERAPY WITH PHTHALOCYANINES AND RADICAL SOURCES” (Case Western Reserve University, priority 2011, published 2012).

Where two headings read alike, the source gives them in different places.

Data set [1] is described as follows: Qualitative solubility in organic solvents.
Data set [2] is described as follows: Photodecomposition of phthalocyanines in toluene under white light, no added radical source. The settings on record: for decomp (%): toluene ~9 μM, no added alkene, white light 1.2 kJ/s/m^2.
Experimental: The distance between the cuvette face and the lamp filament was 30 cm. Determination of the beam intensity at the cuvette face was made with a powermeter (Powermax, pm10, Coherent, Santa Clara, Calif.). The beam intensity was checked before each measurement.
Solutions for the photodecomposition experiments were prepared as follows. […] This assumption was justified on the basis that all of the silicon phthalocyanines studied contained simple, unsubstituted phthalocyanine rings. The extinction coefficients of the aluminum phthalocyanines were assumed to be 2.3×10^5, the extinction coefficient of AlPcOSi(CH3)2(CH2)3N(CH3)2, Pc 1.
The absorbance of the Q band of the solution, A, was determined with a spectrophotometer (Lambda 25, Perkin Elmer, Shelton, Conn.; fused silica cuvettes, 1.00 cm, 3.5 mL, Fisher Scientific). From A, ε, the cuvette path length, b, and Beer's law, the concentration of the solution, c, was determined. The solution was then diluted with toluene to a concentration of 9.2 μM. To verify that this was the concentration of the solution, its absorbance was measured again.
In a typical determination, the solution (3.00 mL) was placed in a cuvette (1.00 cm, 3.5 mL, Fisher Scientific, Pittsburgh, Pa.) and its absorbance was measured with the spectrometer (Lambda 25) before irradiation and at 2, 4, 6 and 8 h.
where A0 is the absorbance of the solution at time 0, and At is the absorbance at time t.
For data set [3] the following is noted: for decomp (%) of Pc 4: Pc 4 in toluene ~9 μM, white light 1.2 kJ/s/m^2. As for the experimental part: (§1) The beam intensity was checked before each measurement.
(§2) Solutions for the photodecomposition experiments were prepared as follows.

The nature of data set [4]: Photodecomposition of Al and Si phthalocyanines in toluene in the presence of squalene under white light. The format is physicochemical. The conditions noted are these: toluene ~9 μM, squalene 1:1000 mole ratio, white light 1.2 kJ/s/m^2, air. On the procedure:
as §1, §2

[5] abbreviates: time 2 h, radiation 86 kJ/mol × 10^−6.
Setting [6] is: time 4 h, radiation 172 kJ/mol × 10^−6.
Where [7] appears, read: time 6 h, radiation 258 kJ/mol × 10^−6.
Setting [8] is: time 8 h, radiation 344 kJ/mol × 10^−6.
The mark [9] stands for this setting: time 0 h, alkene 1:100 mole ratio.
[10] abbreviates: time 0 h, alkene 1:1000 mole ratio.
Where [11] appears, read: time 2 h, alkene 1:100 mole ratio.
Setting [12] is: time 2 h, alkene 1:1000 mole ratio.
Setting [13] is: time 4 h, alkene 1:100 mole ratio.
Where [14] appears, read: time 4 h, alkene 1:1000 mole ratio.
[15] abbreviates: time 6 h, alkene 1:100 mole ratio.
Setting [16] is: time 6 h, alkene 1:1000 mole ratio.
Where [17] appears, read: time 8 h, alkene 1:100 mole ratio.
The mark [18] stands for this setting: time 8 h, alkene 1:1000 mole ratio.

For the molecule `CC(C)CCCC(C)CCCC(C)CCOc1cc2c(cc1OCCC(C)CCCC(C)CCCC(C)C)-c1nc-2nc2[nH]c(nc3nc(nc4[nH]c(n1)c1ccccc41)-c1ccccc1-3)c1ccccc21` (stereo not drawn) [Pc 272, H2Pc[2,3-O(C2H4CH(CH3)CH2)2C2H4CH(CH3)2]2], the “solubility (in words)” value in data set [1] is “soluble in CH2Cl2 and toluene, and slightly soluble in dimethylformamide and hexanes”.
The same measure, in the same setting: in the case of “NiPc[2,3-O(C2H4CH(CH3)CH2)2C2H4CH(CH3)2]2 [Pc 274]” it was “slightly soluble in CH2Cl2, dimethylformamide, toluene, and hexanes”; in that of “ZnPc[2,3-O(C2H4CH(CH3)CH2)2C2H4CH(CH3)2]2 [Pc 275]”, “slightly soluble in CH2Cl2, dimethylformamide, toluene, and hexanes”.
Take “SiPc[OC(O)CH2(CH2CH═CH)6CH2CH3]2 [Pc 300]”: the “decomp (%)” value came out at 0% in data set [2] (time 0 h); 16% in data set [2] (setting [5]); 34% in data set [2] (setting [6]); 46% in data set [2] (setting [7]); 56% in data set [2] (setting [8]). The “solubility (in words)” value in data set [1] was “soluble in CH2Cl2, dimethylformamide, pyridine and toluene, slightly soluble in hexanes, and insoluble in methanol”.
With `CC(C)=CCC/C(C)=C/CO` [geraniol], the “effectiveness of alkene in decreasing photostability of Pc 4 (in words)” value in data set [3] is given as “most effective”. Besides, the “decomp (%) of Pc 4” value is 0% in data set [3] (setting [9]); 0% in data set [3] (setting [10]); 10% in data set [3] (setting [11]); 87% in data set [3] (setting [12]); 14% in data set [3] (setting [13]); 98% in data set [3] (setting [14]). The “decomp (%) of Pc 4” value in data set [3] (setting [15]) is 21%; in data set [3] (setting [16]), 99%; in data set [3] (setting [17]) it was 30%; in data set [3] (setting [18]), 99%.
Consider `CCCCC/C=C\C/C=C\CCCCCCCC(=O)O.CCCCC/C=C\C/C=C\CCCCCCCC(=O)O.CN(C)CCC[Si](C)(C)O[Si]1(O[Si](C)(C)CCCN(C)C)n2c3c4ccccc4c2N=C2N=C(N=c4c5ccccc5c(n41)=NC1=NC(=N3)c3ccccc31)c1ccccc12` [Pc 289, SiPc[OSi(CH3)2(CH2)3NH(CH3)2]2^2+ [OC(O)(CH2)6(CH2CH═CH)2(CH2)4CH3]2], for which the “decomp (%)” value was 0% in data set [2] (time 0 h); 18% in data set [2] (setting [5]); 19% in data set [2] (setting [6]); 20% in data set [2] (setting [7]); 21% in data set [2] (setting [8]). The “solubility (in words)” value in data set [1] was “soluble in ethanol, CH2Cl2 and dimethylformamide, moderately soluble in toluene, and insoluble in hexanes”.
With `CC/C=C\C/C=C\C/C=C\CCCCCCCC(=O)O.CC/C=C\C/C=C\C/C=C\CCCCCCCC(=O)O.CN(C)CCC[Si](C)(C)O[Si]1(O[Si](C)(C)CCCN(C)C)n2c3c4ccccc4c2N=C2N=C(N=c4c5ccccc5c(n41)=NC1=NC(=N3)c3ccccc31)c1ccccc12` [Pc 290, SiPc[OSi(CH3)2(CH2)3NH(CH3)2]2^2+ [OC(O)(CH2)6(CH2CH═CH)3CH2CH3]2], in data set [1], the “solubility (in words)” value is “soluble in ethanol, CH2Cl2 and dimethylformamide, moderately soluble in toluene, and insoluble in hexanes”.
As for `CC(C)=CCC/C(C)=C/CC/C(C)=C/CC/C=C(\C)CC/C=C(\C)CCC=C(C)C` [squalene], the “decomp (%) of Pc 4” value came to 0% in data set [3] (setting [9]); 0% in data set [3] (setting [10]); 50% in data set [3] (setting [11]); 57% in data set [3] (setting [12]); 75% in data set [3] (setting [13]); 81% in data set [3] (setting [14]). For the same molecule, the “decomp (%) of Pc 4” value in data set [3] (setting [15]) was determined as 87%; in data set [3] (setting [16]) it was 92%; in data set [3] (setting [17]), 94%; in data set [3] (setting [18]) it was 96%.
For the molecule “SiNc[OSi(CH3)2(CH2)3N(CH3)2]2 [Compound 41]”, the “solubility (in words)” value in data set [1] is “soluble in CH2Cl2, dimethylformamide, and toluene, and insoluble in hexanes”.
Regarding “SiPc[O(CH2CH═C(CH3)CH2)2CH2CH═C(CH3)2]2 [Pc 303]”, the “stability in the dark” value in data set [2] (in the dark) is recorded as “stable in the dark”. For the same molecule, the “decomp (%)” value in data set [2] (time 0 h) came out at 0%; in data set [2] (setting [5]) it was 1%; in data set [2] (setting [6]), 2%; in data set [2] (setting [7]), 2%; in data set [2] (setting [8]), 2%. In addition, the “solubility (in words)” value in data set [1] was “soluble in CH2Cl2, dimethylformamide, pyridine and toluene, and insoluble in hexanes and methanol”.
Take `C1=C\CC/C=C\CC/1` [1,5-cyclooctadiene]: the “decomp (%) of Pc 4” value in data set [3] (setting [10]) amounted to 0%; in data set [3] (setting [12]), 23%; in data set [3] (setting [14]) it was 49%; in data set [3] (setting [16]), 69%; in data set [3] (setting [18]), 83%.
Regarding `CCCCCCCC/C=C\CCCCCCCC(=O)O[Si]1(OC(=O)CCCCCCC/C=C\CCCCCCCC)n2c3c4ccccc4c2N=C2N=C(N=c4c5ccccc5c(n41)=NC1=NC(=N3)c3ccccc31)c1ccccc12` [Pc 295, SiPc[OC(O)(CH2)7CH═CH(CH2)7CH3]2], the “decomp (%)” value in data set [2] (time 0 h) is 0%; in data set [2] (setting [5]), 2%; in data set [2] (setting [6]), 3%; in data set [2] (setting [7]), 3%; in data set [2] (setting [8]), 4%. The “solubility (in words)” value in data set [1] was “soluble in CH2Cl2, dimethylformamide, pyridine and toluene, slightly soluble in hexanes, and insoluble in methanol”.
With `CC1=C(/C=C/C(C)=C/C=C/C(C)=C/C(=O)O)C(C)(C)CCC1.CC1=C(/C=C/C(C)=C/C=C/C(C)=C/C(=O)O)C(C)(C)CCC1.CN(C)CCC[Si](C)(C)O[Si]1(O[Si](C)(C)CCCN(C)C)n2c3c4ccccc4c2N=C2N=C(N=c4c5ccccc5c(n41)=NC1=NC(=N3)c3ccccc31)c1ccccc12` [Pc 293, SiPc[OSi(CH3)2(CH2)3NH(CH3)2]2^2+ [OC(O)(CH═C(CH3)CH═CH)2C6H6(CH3)3]2], the “solubility (in words)” value in data set [1] is “soluble in ethanol, CH2Cl2 and dimethylformamide, moderately soluble in toluene, and insoluble in hexanes”.
`CN(C)CCC[Si](C)(C)O[Si]1(O)n2c3c4ccccc4c2N=C2N=C(N=c4c5ccccc5c(n41)=NC1=NC(=N3)c3ccccc31)c1ccccc12` (stereo not drawn) [Pc 4, HOSiPcOSi(CH3)2(CH2)3N(CH3)2]: the “decomp (%)” value in data set [4] (time 0 h) stood at 0%; in data set [4] (setting [5]), 57%; in data set [4] (setting [6]), 81%; in data set [4] (setting [7]), 92%; in data set [4] (setting [8]) it was 96%; in data set [2] (time 0 h), 0%. For the same molecule, the “decomp (%)” value in data set [2] (setting [5]) is on record as 11%; in data set [2] (setting [6]), 12%; in data set [2] (setting [7]) it was 12%; in data set [2] (setting [8]), 13%.
As to `CCCCC/C=C\C/C=C\CCCCCCCC(=O)O` [linoleic acid], the “decomp (%) of Pc 4” value in data set [3] (setting [10]) is recorded as 0%; in data set [3] (setting [12]), 40%; in data set [3] (setting [14]), 72%; in data set [3] (setting [16]), 89%; in data set [3] (setting [18]) it was 99%.
For `CCC[Si](CCC)(CCC)O[Si]1(O[Si](CCC)(CCC)CCC)n2c3c4ccccc4c2N=C2N=C(N=c4c5ccccc5c(n41)=NC1=NC(=N3)c3ccccc31)c1ccccc12` [Pc 282, SiPc(OSiPr3)2], the “decomp (%)” value is on record as 0% in data set [4] (time 0 h); 3% in data set [4] (setting [5]); 4% in data set [4] (setting [6]); 6% in data set [4] (setting [7]); 7% in data set [4] (setting [8]).
In the case of HOSiPcOSi(CH3)2(CH2)3N(C2H5)2 [Pc 34], the “solubility (in words)” value in data set [1] was “soluble in CH2Cl2, dimethylformamide, and toluene, and insoluble in hexanes”.
Still for that read-out and setting: the same measure for “CoPc[2,3-O(C2H4CH(CH3)CH2)2C2H4CH(CH3)2]2 [Pc 273]”: “slightly soluble in CH2Cl2, dimethylformamide, toluene, and hexanes”.
As for `CC(C)=CCC/C(C)=C/CC/C(C)=C/CO` [farnesol], in data set [3], the “effectiveness of alkene in decreasing photostability of Pc 4 (in words)” value is “most effective”. Besides, the “decomp (%) of Pc 4” value in data set [3] (setting [9]) was found to be 0%; in data set [3] (setting [10]), 0%; in data set [3] (setting [11]), 13%; in data set [3] (setting [12]) it was 79%; in data set [3] (setting [13]) it was 20%; in data set [3] (setting [14]), 93%. Also, the “decomp (%) of Pc 4” value was 38% in data set [3] (setting [15]), 99% in data set [3] (setting [16]), 50% in data set [3] (setting [17]) and 99% in data set [3] (setting [18]).
